Results taken from patent US6953677B2, “Recombinant L-N-carbamoylase from Arthrobacter aurescens and method of producing L-amino acids therewith” (Degussa AG, priority 1998, dated 2005).
Where two headings read alike, the source gives them in different places.

Legend:
[1] = biological target: rec-L-N-carbamoylase from A.a. (Paenarthrobacter aurescens, UniProt Q9F464); type: biochemical, Arthrobacter aurescens; conditions: pH 8.5, homogeneously purified enzyme
Procedure: (§1) The substrate specificity of the carbamoylase was investigated with homogeneously purified enzyme. The latter was obtained after cell maceration and ion exchange chromatography on Streamline-DEAE- and MonoQ media. A solution of the particular substrate was produced in a concentration of 1.8 mM (exception N-carbamoyl-L-methionine: 50 mM) in 0.1 M TRIS-HCl, pH 8.5 and used instead of the standard substrate in the standard activity test. Instead of the trichloroacetic acid (TCA) used in the standard test for stopping, in the case of the substrates N-formyl-D,L-tryptophane, N-carbamoyl-L-thienylalanine and N-acetyl-D,L-tryptophane heat denaturation was used to terminate the reaction (incubation for 10 min in a boiling water bath) and in the case of the substrate N-carbamoyl-D,L-phenylalanine, addition of 900 μl methanol to 100 μl assay solution was used. The concentration of the amino acid was subsequently determined either by HPLC or colorimetrically after reaction with ninhydrin.
(§2) 5 ml of a cell culture induced with rhamnose are centrifuged at 3000 rpm for 5 min in a Heraeus Megafuge, washed with 5 ml buffer (200 mM TRIS-HCl, pH 7.0), re-centrifuged, taken up in 1 ml buffer (200 mM TRIS-HCl, 0.1 mM MnCl2 pH 7.0) and macerated by ultrasound (Ultrasonics Sonicator, microtip, 2×30 sec, duty cycle 50%). Cell fragments are removed by centrifugation in an Eppendorf centrifuge at 13000 rpm, 10 min. The supernatant, designated as raw extract, is used for the enzyme measurement. 100 μl raw extract or cleaned-up enzyme is mixed with 800 μl 2 mM N-carbamoyl amino acid preheated to 37° C. in 100 mM TRIS-HCl, pH 8.5 and incubated 10 min at 37° C. The reaction is stopped by the addition of 400 μl trichloroacetic acid. The precipitated protein is separated by centrifugation in an Eppendorf centrifuge at 13000 rpm for 10 min. The supernatant is subsequently measured in an HPLC or calorimetrically (ninhydrin). The separation of the reaction mixture takes place in an HPLC with an RP-18 column, the mobile solvent is 0.3% (V/V) phosphoric acid, 80% methanol, flow rate 1.0 ml/min. The detection takes place by measuring the UV absorption at a wavelength of 280 nm.

[2] = substrate: NC(=O)NC(Cc1ccccc1)C(=O)O; assay: purified protein, by the assay type; type: biochemical, Arthrobacter aurescens; conditions: other: homogeneously purified enzyme, 0.1 M TRIS-HCl, pH 8.5, 37.0 °C
Procedure: as §1, §2

[3] = substrate: NC(=O)N[C@@H](Cc1c[nH]c2ccccc12)C(=O)O; assay: purified protein, by the assay type; type: biochemical, Arthrobacter aurescens; conditions: other: homogeneously purified enzyme, 0.1 M TRIS-HCl, pH 8.5, 37.0 °C
Procedure: as §1, §2

[4] = substrate: NC(=O)N[C@@H](Cc1ccc(O)cc1)C(=O)O; assay: purified protein, by the assay type; type: biochemical, Arthrobacter aurescens; conditions: other: homogeneously purified enzyme, 0.1 M TRIS-HCl, pH 8.5, 37.0 °C
Procedure: as §1, §2

[5] = substrate: NC(=O)N[C@@H](Cc1cccs1)C(=O)O; assay: purified protein, by the assay type; type: biochemical, Arthrobacter aurescens; conditions: other: homogeneously purified enzyme, 0.1 M TRIS-HCl, pH 8.5, 37.0 °C
Procedure: as §1, §2

[6] = substrate: O=CNC(Cc1c[nH]c2ccccc12)C(=O)O; assay: purified protein, by the assay type; type: biochemical, Arthrobacter aurescens; conditions: other: homogeneously purified enzyme, 0.1 M TRIS-HCl, pH 8.5, 37.0 °C
Procedure: as §1, §2

[7] = Temperature stability of the rec-L-N-carbamoylase (storage, then standard activity test); type: physicochemical, Arthrobacter aurescens
Procedure: FIG. 2: Standard activity assay of the isolated recombinant Arthrobacter aurescens N-L-carbamoylase enzyme isolated from E.coli. The N-L-carbamoylase was isolated after cell maceration and ion exchange chromatography on Streamline DEAE and MonoQ media. N-L-carbamoylase activity was determined by reacting with the substrate N-carbamoyl-L-tryptophane over 100 hours wherein the concentration of the amino acid tryptophan was determined in order to calculate N-L carbamoylase activity. The N-L-carbamoylase enzyme activity was measured and reached a relative activity level of around 100% between hours 40 and […] of incubation 37° C.
[…] The standard test for determination of activity was carried out at time intervals of 1-100 h.
as §2

[8] = N-L-carbamoylase activity of raw extract of rhamnose-induced E. coli JM109/pAW178-2; type: biochemical, Arthrobacter aurescens; conditions: 9 h after rhamnose induction, approximately maximum; N-carbamoyl-L-tryptophane as substrate
Procedure: 1 ml of an overnight culture of E. coli JM109/pAW178-2 (FIG. 1) in LBamp is added into 100 ml fresh LBamp medium in a one-liter Erlenmeyer flask and the latter incubated at 30° C. in a water bath under agitation (200 rpm). 1 ml of a 20% rhamnose solution is added to the culture at an optical density of the culture of 0.5 (measured at a wavelength of 600 nm in a photometer) (end concentration […]) and the culture incubated further. After a further 9 h incubation approximately the maximum of the N-L-carbamoylase activity is achieved, a specific activity of 1.8 units/mg raw extract, measured with N-carbamoyl-L-tryptophane as substrate. No activity was found in cultures which had not been induced with rhamnose.
5 ml of a cell culture induced with rhamnose are centrifuged at 3000 rpm for 5 min in a Heraeus Megafuge, washed with 5 ml buffer (200 mM TRIS-HCl, pH 7.0), re-centrifuged, taken up in 1 ml buffer (200 mM TRIS-HCl, 0.1 mM MnCl2 pH 7.0) and macerated by ultrasound (Ultrasonics Sonicator, microtip, 2×30 sec, duty cycle 50%). Cell fragments are removed by centrifugation in an Eppendorf centrifuge at 13000 rpm, 10 min. The supernatant, designated as raw extract, is used for the enzyme measurement. […] The supernatant is subsequently measured in an HPLC or calorimetrically (ninhydrin). […]

[9] = substrate 1.8 mM in 0.1 M TRIS-HCl, n.n. = can not be detected

Row | Molecule | Activity % [1, 9] | also measured
1 | N=C(N)NCCC[C@H](NC(N)=O)C(=O)O [N-carbamoyl-L-arginine] | n.n. | –
2 | O=CNC(Cc1c[nH]c2ccccc12)C(=O)O (racemic) [N-formyl-D-L-tryptophane] | 97% | –
3 | NC(=O)N[C@@H](Cc1cccs1)C(=O)O [N-carbamoyl-L-thienylalanine] | 314% | –
4 | CSCC[C@H](NC(N)=O)C(=O)O [N-carbamoyl-L-methionine] | – | Activity % ([1]; substrate 50 mM (exception) in 0.1 M TRIS-HCl): 17%
5 | NC(=O)N[C@H](C(=O)O)c1ccccc1 [N-carbamoyl-L-phenylglycine] | n.n. | –
6 | NC(=O)NCCC(=O)O [N-carbamoyl-β-alanine] | n.n. | –
7 | NC(=O)N[C@@H](Cc1c[nH]c2ccccc12)C(=O)O [N-carbamoyl-L-tryptophane] | 100% | –
8 | CC(=O)NC(Cc1c[nH]c2ccccc12)C(=O)O (racemic) [N-acetyl-D,L-tryptophane] | n.n. | –
9 | NC(=O)N[C@@H](Cc1ccc(O)cc1)C(=O)O [N-carbamoyl-L-tyrosine] | 126% | –
10 | NC(=O)N[C@H](Cc1ccccc1)C(=O)O [N-carbamoyl-D-phenylalanine] | n.n. | –
11 | NC(=O)N[C@@H](CCC(=O)O)C(=O)O [N-carbamoyl-L-glutamate] | n.n. | –
12 | NC(=O)N[C@@H](C(=O)O)c1ccccc1 [N-carbamoyl-D-phenylglycine] | n.n. | –
13 | NC(=O)NC(Cc1ccccc1)C(=O)O (racemic) [N-carbamoyl-D,L-phenylalanine] | 97% | –
14 | NC(=O)NC(CC(=O)O)C(=O)O (racemic) [N-carbamoyl-D,L-aspartate] | n.n. | –
15 | NC(=O)N[C@H](Cc1c[nH]c2ccccc12)C(=O)O [N-carbamoyl-D-tryptophane] | n.n. | –
16 | O=CN[C@@H](CC(=O)O)C(=O)O [N-formyl-L-aspartate] | n.n. | –
17 | rec-L-N-carbamoylase from A.a. (Paenarthrobacter aurescens) (protein) MTLQKAQAERIEKEIRELSRFSAEGPGVTRLTYTPEHAAARETLIAAMKAAALSVREDALGNIIGRREGTDPELPAIAVGSHFDSVRNGGMFDGTAGVVCALEAARVMLENGYVNRHPFEFIAIVEEEGARFSSGMLGGRAIAGLVADRELDSLVDEDGVSVRQAATAFGLKPGELQAAARSAADLRAFIELHIEQGPILEQEQIEIGVVTSIVGVRALRVAVKGRSDHAGTTPMHLRQDALVPAALMVREVNRFVNEIADGTVATVGHLTVAPGGGNQVPGEVDFTLDLRSPHEESLRVLIDRISVMVGEVASQAGVAADVDEFFNLSPVQLAPTMVDAVREAASALQFTHRDISSGAGHDSMFIAQVTDVGMVFVPSRAGRSHVPEEWTDFDDLRKGTEVVLRVMKALDR | – | Km [2]: 0.7 MM; Km [3]: 0.12 MM; Km [4]: 0.3 MM; Km [5]: 2.3 MM; Km [6]: 8.5 MM
18 | rec-carbamoylase: recombinant L-N-carbamoylase from Arthrobacter aurescens (hyuC gene, SEQ ID NO:2) expressed in E. coli (protein, listed as Arthrobacter aurescens) MTLQKAQAARIEKEIRELSRFSAEGPGVTRLTYTPEHAAARETLIAAMKAAALSVREDALGNIIGRREGTDPELPAIAVGSHFDSVRNGGMFDGTAGVVCALEAARVMLENGYVNRHPFEFIAIVEEEGARFSSGMLGGRAIAGLVADRELDSLVDEDGVSVRQAATAFGLKPGELQAAARSAADLRAFIELHIEQGPILEQEQIEIGVVTSIVGVRALRVAVKGRSDHAGTTPMHLRQDALVPAALMVREVNRFVNEIADGTVATVGHLTVAPGGGNQVPGEVDFTLDLRSPHEESLRVLIDRISVMVGEVASQAGVAADVDEFFNLSPVQLAPTMVDAVREAASALQFTHRDISSGAGHDSMFIAQVTDVGMVFVPSRAGRSHVPEEWTDFDDLRKGTEVVLRVMKALDR | – | activity on storage at 37° C. ([7]; 37° C., 100 h, homogeneously purified recombinant enzyme): almost unchanged; duration of activity at 50° C. ([7]; 50° C.): hours; relative activity level ([7]; between hours 40 and 140 of incubation 37° C., substrate N-carbamoyl-L-tryptophane (FIG. 2)): around 100%; specific activity [8]: 1.8 units/mg raw extract
